Measurements from patent publication US20260092039A1, “DUAL INHIBITORS FOR THE TREATMENT OF ALZHEIMER'S DISEASE” (UNIVERSITAT DE BARCELONA, priority 2023, published 2026).

Tests used:
[1] = test system: primary mouse cortical neurons; assay: MTT viability assay in mouse primary cortical neurons; assay type: cell-based
Method: The compounds were diluted from 250 mM DMSO stocks to a 100 mM stock in DMSO. Thereafter, compounds were diluted to 100 μM, 20 μM, 5 μM, 1 μM, 0.2 μM, 0.05 μM, 0.01 μM and 0.001 μM dilution in medium, so that the final DMSO concentration in the well was 0.1% for all conditions. Stock solutions were stored at −20° C. until further use.
Isolation and treatment of primary mouse cortical neurons: Primary cortical neurons were prepared from timed pregnant wild-type C57BL/6JRccHsd mice at E16.5-E18. Animals were sacrificed by carbon dioxide and embryos were dissected in Calcium and Magnesium free Hanks Balanced Salt Solution (CMF-HBSS) containing 15 mM HEPES and 10 mM NaHCO3, pH 7.2. Embryos were decapitated, skin and skull gently removed and cortical hemispheres were separated. After removing meninges and brain stem, the cortex was isolated, chopped with a sterile razor blade in Chop solution (Hibernate-E without Calcium containing 2% B-27) and digested in 2 mg/mL papain (Worthington) dissolved in Hibernate-E without Calcium for 30 min at 30° C. Cortices were triturated for 10-15 times with a fire-polished silanized Pasteur pipette in Hibernate-E without Calcium containing 2% B-27, 0.01% DNaseI, 1 mg/mL BSA, and 1 mg/mL Ovomucoid Inhibitor. Undispersed pieces were allowed to settle by gravity for 1 min and the supernatant was centrifuged for 3 min at 228 g. The pellet was resuspended in Hibernate-E containing 2% B-27, 0.01% DNaseI, 1 mg/mL BSA, 1 mg/mL Ovomucoid Inhibitor and diluted with Hibernate-E containing 2% B-27. After the second centrifugation step (3 min at 228 g), the pellet was resuspended in nutrition medium without glutamate (Neurobasal, 2% B-27, 0.5 mM glutamine, 1% Penicillin-Streptomycin). Cells were counted in a hemacytometer and seeded in nutrition medium on poly-D-lysine pre-coated plates. Cells were cultured at 37° C.; 95% humidity and 5% CO2. All wells were handled the same way. On DIV8, cells were treated with the compounds for the evaluation of the neurotoxic effect. On DIV9, the MTT and LDH assays were performed as described below. The experiments were performed in six technical replicates for all groups per experiment.
MTT viability assay: Viability of cultures was determined on DIV9 by the MTT assay using a plate-reader (570 nm). MTT solution was added to each well in a final concentration of 0.5 mg/mL. After 2 h the MTT containing medium was aspirated. Cells were lysed in 3% SDS and the formazan crystals were dissolved in isopropanol/HCl. Optical density was measured with a plate-reader at wavelength 570 nm. Cell survival rate was expressed as optical density (OD). Values were calculated as percent of control values (vehicle control).

[2] = Parallel artificial membrane permeation assay for blood-brain barrier (PAMPA-BBB); assay type: in vitro ADME, porcine; settings: for Papp: pig, PBS:EtOH (70:30), read-out: Blood-brain barrier permeability Pe; for CNS prediction: predictive penetration in the CNS from Pe
Method: A parallel artificial membrane permeation assay for blood-brain barrier (PAMPA-BBB) was used to evaluate the brain penetration of compounds of formula I, following the method described by L. Di et al., “High throughput artificial membrane permeability assay for blood-brain barrier”, European Journal of Medicinal Chemistry 2003, vol. 38. pp. 223-232. The in vitro permeability (Pe) of the test compounds through a lipid extract of porcine brain membrane was determined. Assayed compounds were tested using a mixture of PBS:EtOH (70:30). Assay validation was made by comparing the experimental and reported permeability values of a set of fourteen commercial drugs and a lineal correlation between experimental and reported permeability values of the fourteen commercial drugs was obtained (y=1.678 x−1.447; R^2=0.9313). From this equation and taking into account the limits established by Di et al. for BBB permeation, the ranges of permeability were established, as follows. Compounds of high BBB permeation (CNS+): Pe (10^−6 cm s^−1)>5.26; compounds of low BBB permeation (CNS−): Pe (10^−6 cm s^−1)<1.91; and compounds of uncertain BBB permeation (CNS+/−): 5.26>Pe (10^−6 cm s^−1)>1.91. The permeability results are averages of three different experiments in triplicate and a predictive penetration in the CNS is also given (Table 5).

[3] = molecular target: T1, recombinant human sEH (hsEH) (Homo sapiens, UniProt P34913); assay: In vitro determination of sEH inhibitory activity (fluorescent PHOME assay)
T1 sequence (P34913 1-555): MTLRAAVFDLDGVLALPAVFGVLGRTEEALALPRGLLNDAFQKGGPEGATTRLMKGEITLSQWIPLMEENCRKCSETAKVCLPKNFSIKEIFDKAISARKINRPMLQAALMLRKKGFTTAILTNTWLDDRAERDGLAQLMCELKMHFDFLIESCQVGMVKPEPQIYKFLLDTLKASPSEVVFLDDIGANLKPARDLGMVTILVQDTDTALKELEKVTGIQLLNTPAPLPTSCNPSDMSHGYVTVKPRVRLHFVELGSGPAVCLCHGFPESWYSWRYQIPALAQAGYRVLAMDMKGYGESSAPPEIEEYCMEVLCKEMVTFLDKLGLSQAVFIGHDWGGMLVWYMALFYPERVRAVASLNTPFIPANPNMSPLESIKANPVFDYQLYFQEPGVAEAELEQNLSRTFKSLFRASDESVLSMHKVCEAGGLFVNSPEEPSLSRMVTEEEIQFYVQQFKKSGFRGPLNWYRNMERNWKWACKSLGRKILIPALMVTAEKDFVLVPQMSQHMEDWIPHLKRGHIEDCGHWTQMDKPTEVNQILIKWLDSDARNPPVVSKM
Method: Control compound (TPPU): N-[1-(1-Oxopropyl)-4-piperidinyl]-N′-[4-(trifluoromethoxy)phenyl]urea.
Five μL of DMSO were added to background and positive control wells, and then 5 μL of inhibitor solution were added in the inhibitor wells. Five μL of the solution of hsEH were added to the positive control and inhibitor wells and the mixture was stirred. A 1/21 dilution of the solution of PHOME with assay buffer was prepared according to the final volume required, and then 105 μL of each well were added. The plate was carefully shaken for 10 seconds and was incubated for 5 minutes at room temperature. […] The intensity of fluorescence was used to analyze and calculate the IC50 values. Results were obtained by regression analysis from at least three data points in a linear region of the curve. IC50 values are average of minimum three independent replicates.

Compound	primary cortical neuronal cell viability, MTT ([1]; compound 0.001 μM)	primary cortical neuronal cell viability, MTT ([1]; compound 0.01 μM)	primary cortical neuronal cell viability, MTT ([1]; compound 0.05 μM)	primary cortical neuronal cell viability, MTT ([1]; compound 0.2 μM)	primary cortical neuronal cell viability, MTT ([1]; compound 1 μM)	primary cortical neuronal cell viability, MTT ([1]; compound 5 μM)	primary cortical neuronal cell viability, MTT ([1]; compound 20 μM)	primary cortical neuronal cell viability, MTT ([1]; compound 100 μM)	Papp [2]	CNS prediction [2]	IC50 [3]
CCC12CC3CC(C1)CC(NC(=O)NCCCn1cncc1C)(C3)C2 [Id, 1-(3-ethyladamantan-1-yl)-3-[3-(5-methyl-1H-imidazol-1-yl)propyl]urea]	110 % of vehicle control	107 % of vehicle control	100 % of vehicle control	99 % of vehicle control	99 % of vehicle control	93 % of vehicle control	89 % of vehicle control	53 % of vehicle control	> 30 ×10⁻⁶ cm/s	CNS+ (Compounds of high BBB permeation (CNS+): Pe (10^−6 cm s^−1)>5.26)	3.3 nM
Cc1cncn1CCCNC(=O)NC1C2CC3CC(C2)CC1C3 (centres unmarked) [Ii, 1-(adamantan-2-yl)-3-[3-(5-methyl-1H-imidazol-1-yl)propyl]urea]	101 % of vehicle control	95 % of vehicle control	99 % of vehicle control	96 % of vehicle control	101 % of vehicle control	101 % of vehicle control	101 % of vehicle control	55 % of vehicle control	> 30 ×10⁻⁶ cm/s	CNS+ (Compounds of high BBB permeation (CNS+): Pe (10^−6 cm s^−1)>5.26)	4.3 nM
Cc1cncn1CCCNC(=O)NC12CC3CC(CC(C)(C3)O1)C2 [Ir, 1-[3-(5-methyl-1H-imidazol-1-yl)propyl]-3-(3-methyl-2-oxaadamantan-1-yl)urea]	97 % of vehicle control	97 % of vehicle control	93 % of vehicle control	99 % of vehicle control	101 % of vehicle control	99 % of vehicle control	99 % of vehicle control	87 % of vehicle control	6.9 ×10⁻⁶ cm/s	CNS+ (Compounds of high BBB permeation (CNS+): Pe (10^−6 cm s^−1)>5.26)	860 nM
CCC12CC3CC(C1)CC(NC(=O)NCCCn1cncc1C)(C3)O2 [Is, 1-(3-ethyl-2-oxaadamantan-1-yl)-3-[3-(5-methyl-1H-imidazol-1-yl)propyl]urea]	104 % of vehicle control	102 % of vehicle control	103 % of vehicle control	96 % of vehicle control	101 % of vehicle control	103 % of vehicle control	101 % of vehicle control	86 % of vehicle control	> 30 ×10⁻⁶ cm/s	CNS+ (Compounds of high BBB permeation (CNS+): Pe (10^−6 cm s^−1)>5.26)	2800 nM
